Measured values as given in patent EP3331365B1, “AGENT FOR FIGHTING FISH PARASITES” (Pharmaq AS, priority 2015, dated 2017).

How the values were obtained:
Type in all cases: in vivo
[1] = system: Lepeophtheirus salmonis; test: Lesa assay: bioassay on salmon lice, 1 hour exposure in seawater; settings: monitored until 96 hours post exposure, 8-10 °C
Experimental: The stock was then diluted in saltwater to the appropriate concentration.
Control formulations were also prepared comprising only solvent (acetone) and solubilizer (Kolliphor EL) in the same ratio as the test formulation. A salt water control was also used.
Bioassay experiments were then conducted on copepodites and pre-adult/adult salmon lice (Lepeophtheirus salmonis).
After 1 hour exposure, the lice were transferred to modified 6 well plates and washed twice in saltwater. The plates were then incubated and the numbers of dead and surviving lice were monitored until 96 hours post exposure. The experimental temperature was maintained at 8-10 °C.

[2] = system: tilapia (Oreochromis niloticus); test: Toxicity to fish, intraperitoneal injection
Experimental: . Tilapia of mean weight of 158 grams reared in freshwater at 29°C were distributed in three groups of 10 fish. Each group was injected with 0.05 ml of the relevant formulation, or PBS control.

[3] = system: sea lice (L. salmonis); test: Bath treatment of sea lice infested Atlantic salmon: count of attached female sea lice; settings: 2ppm for 60 minutes by bath; 12°C seawater; counted three days after treatment
Experimental: Diafenthiuron was tested for use in treating fish parasites.
Atlantic salmon were acclimatized to 12°C seawater.
Three days after treatment the number of attached female sea lice was counted. The number of adult female sea lice was reduced by 56% in the treated group.

With `CC(C)c1cc(Oc2ccccc2)cc(C(C)C)c1NC(=S)NC(C)(C)C` [Diafenthiuron, 1-tert-butyl-3-(2,6-diisopropyl-4-phenoxyphenyl)thiourea] the “% dead” value ([1]; Copepodites, 0.5 ppm) was 77%, the Dead/total ([1]; Copepodites, 0.5 ppm) was 10/13 and the “% dead” value ([1]; Copepodites, 2.0 ppm) was 100%. The Dead/total ([1]; Copepodites, 2.0 ppm) was 20/20, the “% dead” value ([1]; Copepodites, 20 ppb) was 48% and the Dead/total ([1]; Copepodites, 20 ppb) was 11/23. For the same molecule, the “% dead” value ([1]; Pre-adult/adult, 2.0 ppm) was 100%, the Dead/total ([1]; Pre-adult/adult, 2.0 ppm) was 5/5 and the “% mortality” value ([2]; 0.05 ml of 25 mg/ml in PEG400 (85%)/DMSO (15%), intraperitoneal injection, 5 days, same mortality in group without diafenthiuron) was 10%. For the same molecule, the “No. of fish healthy after 5 days” value ([2]; 0.05 ml of 25 mg/ml in PEG400 (85%)/DMSO (15%), intraperitoneal injection, freshwater 29°C, 10 fish) was 9/10, the “treated fish alive and healthy” value ([2]; five days after treatment, 25 mg/ml in PEG400/DMSO, 0.05 ml intraperitoneal injection) was 90% and the “reduction of the number of adult female sea lice” value [3] was 56%.
